Results: article PMC11975549, “Development of Potent Type V MAPK Inhibitors: Design, Synthesis, and Biological Evaluation of Benzothiazole Derivatives Targeting p38α MAPK in Breast Cancer Cells” (Archiv Der Pharmazie, 2025)

Experiments:
L929 cells = assay: MTT cytotoxicity assay, L929 healthy cells; assay type: cell-based; conditions: healthy mouse fibroblast
Description: (§1) Cell culture experiments were performed to assess the antiproliferative efficacy of the synthesized benzothiazole compounds on the MCF7 and MDA‐MB‐231 cell lines. The anticancer activity of the compounds were compared with the L929 healthy cell line as a control. Doxorubicin and cisplatin, the anticancer agents, were employed as positive controls.
(§2) Human epithelial breast adenocarcinoma (MDA‐MB‐231) (ATCC® HTB‐26™), human epithelial breast adenocarcinoma (MCF7) (ATCC® HTB‐22™), and healthy mouse fibroblast (L929) (ATCC® CRL‐10317™) cells were obtained commercially from ATCC.
(§3) MDA‐MB‐231, MCF7, and L929 cells were seeded in 25 cm² flasks. DMEM medium containing 10% FBS, 1% Penicillin‐Streptomycin, L‐Glutamine, and NaHCO₃ was used as the cell culture medium. The cells were incubated and propagated at 37°C in an environment containing 5% CO₂ and 95% humidity. When the cells reached 80%–90% confluency, they were passaged to different media. During passaging, DMEM was first withdrawn, and the cells were washed with PBS to remove FBS from the medium. Then, Trypsin‐EDTA solution was added to the flask to detach the cells, and the flask was kept in a CO₂ incubator for approximately 1 min. To stop the activity of Trypsin‐EDTA medium containing FBS was added to the flask. The cells were collected into a Falcon tube and centrifuged at 800 rpm for 5 min at room temperature. The supernatant was discarded, and the cell pellet was resuspended in the medium and seeded on cell culture plates according to the experimental protocol.
(§4) A total of 2 mg of each compound was dissolved in an appropriate amount of dimethyl sulfoxide (DMSO) to prepare 10 mM stock solutions. These stock solutions were then diluted to create 100 μM intermediate stocks and stored at −80°C. Commercially purchased cisplatin and doxorubicin HCl (Sigma, St. Louis, MO) were dissolved in DMSO following the manufacturer's protocol to create 20 mM stock solutions. These standard drug molecules were diluted from the stock solution, divided into 100 μM aliquots, and stored at –80°C until use.
(§5) MTT analysis was performed to evaluate the in vitro cytotoxicity of the synthesized compounds against different cancer cell lines. Cells used in the cytotoxicity experiments were cultured in DMEM medium supplemented with 10% FBS. Cells suspended in the medium (2 × 10⁴ cells/mL) were seeded into 96‐well culture plates and incubated at 37°C in a 5% CO₂ incubator. After 12 h, compounds were added at different doses (2 µL) to cells (2 × 10⁴) in the 96‐well plates and incubated at 37°C for 24 h.
(§6) The incubated cells were then treated with 20 µL of MTT solution and incubated at 37°C for 4 h. The supernatant was carefully removed from each well, and 100 µL of DMSO was added to each well to dissolve the formazan crystals formed by the cellular reduction of MTT. The absorbance was measured at 570 nm using an ELISA reader. […] At the end of the experiment, the device calculated the IC50 value for each well, and the average values were recorded. Each experiment was performed in at least three replicates.

p38 MAPKα = assay: p38 MAPK alpha ELISA, total level in treated MCF7 cells normalised to total protein (BCA); assay type: cell-based, human; conditions: MCF7 cells exposed to compound
From the text: To account for variations in protein quantities among the cells. The total protein concentrations in cells subjected to the drugs were quantified. The p38 MAPKα levels were adjusted by dividing by the protein levels, yielding results represented as ng/μg protein (Table 3).
A bicinchoninic acid (BCA) protein assay kit (catalog no. 23227) was obtained from Thermo‐Fisher Scientific (IL, USA) and used to detect total protein by the BCA assay. In this assay, the reaction between BCA, Cu²⁺ ions, and Cu⁺ ions form a purple complex in alkaline conditions. The absorbance of this complex was measured at 562 nm, and the results were expressed in mg/mL.
The p38 MAPK alpha ELISA Kit (ab221012; Abcam, Cambridge, MA) was used to measure the levels of […] in cell lysates according to the manufacturer's instructions. The SimpleStep Enzyme‐Linked Immunosorbent Assay (ELISA) kit was designed to assess total p38 MAPKα protein semi‐quantitatively. The SimpleStep ELISA uses a reporter‐conjugated detection antibody, and an affinity‐tag labeled capture antibody to immunocapture the sample analyte in solution. An anti‐tag antibody coating the well immobilizes the entire complex (capture antibody, analyte, and detection antibody).
Samples or controls were added to the wells, followed by the Antibody Cocktail to complete the test. After incubation, the wells were washed to remove unbound material. […] The levels of MAPK were normalized to total protein content.

MDA‐MB‐231 cells = assay: MTT antiproliferative assay, MDA-MB-231; assay type: cell-based, human; conditions: for IC50: MTT, 24 h incubation; for Selectivity MDA‐MB‐231: Selectivity index = L929 IC50 / MDA‐MB‐231 IC50 (24 h)
Description: as §1, §2, §3, §4, §5, §6

MCF7 cells = assay: MTT antiproliferative assay, MCF7; assay type: cell-based, human; conditions: for IC50: MTT, 24 h incubation; for Selectivity MCF7: Selectivity index = L929 IC50 / MCF7 IC50 (24 h)
Description: as §1, §2, §3, §4, §5, §6

Row | SMILES | IC50 (L929 cells; L929, 24 h incubation) | Total p38α MAPK levels (p38 MAPKα) | IC50 (MDA‐MB‐231 cells; Homo sapiens, MDA-MB-231) | Selectivity MDA‐MB‐231 (MDA‐MB‐231 cells) | IC50 (MCF7 cells; Homo sapiens, MCF7) | Selectivity MCF7 (MCF7 cells) | IC50 (L929 cells; 24 h incubation) | IC50 (MDA‐MB‐231 cells) | IC50 (MCF7 cells)
1 | Cc1ccc(C(=O)NCc2nc3ccccc3s2)cc1 [Compound 18, N‐(Benzo[d]thiazol‐2‐ylmethyl)‐4‐methylbenzamide] | 29.1 ± 0.52 µM | 1.34 ± 0.154 ng/μg protein | 20.2 ± 0.73 µM | 1.442 | 11.2 ± 0.75 µM | 2.604 |  |  | 
2 | COc1ccc(C(=O)Nc2nc3ccccc3s2)cc1 [Compound 1, N‐(Benzo[d]thiazol‐2‐yl)‐4‐methoxybenzamide] | 24.5 ± 0.56 µM | 7.367 ± 1.291 ng/μg protein | 15.8 ± 0.75 µM | 1.549 | 11 ± 0.27 µM | 2.227 |  |  | 
3 | O=C(Cc1ccc(Cl)cc1)Nc1nc2ccccc2s1 [Compound 23, N‐(Benzo[d]thiazol‐2‐yl)‐2‐(4‐chlorophenyl) acetamide] |  | 2.331 ± 1.241 ng/μg protein |  | 7.666 |  | 6.550 | 54 ± 1.08 µM | 7.04 ± 0.18 µM | 8.24 ± 0.19 µM
4 | COc1cccc(CC(=O)NCc2nc3ccccc3s2)c1 [Compound 26, N‐(Benzo[d]thiazol‐2‐ylmethyl)‐2‐(3‐methoxyphenyl) acetamide] |  |  |  | 1.753 |  | 2.047 | 27.7 ± 0.78 µM | 15.8 ± 0.52 µM | 13.5 ± 0.35 µM
5 | O=C(NCc1nc2ccccc2s1)c1ccc(F)cc1 [Compound 12, N‐(Benzo[d]thiazol‐2‐ylmethyl)‐4‐fluorobenzamide] | 43 ± 0.56 µM |  | 15 ± 0.26 µM | 2.869 | 21.1 ± 0.46 µM | 2.038 |  |  | 
6 | O=C(NCc1nc2ccccc2s1)c1ccc(C(F)(F)F)cc1 [Compound 13, N‐(Benzo[d]thiazol‐2‐ylmethyl)‐4‐(trifluoromethyl) benzamide] |  |  |  | 3.273 |  | 2.534 | 32.8 ± 0.43 µM | 10 ± 0.43 µM | 12.9 ± 0.86 µM
7 | Cc1ccc(C(=O)Nc2nc3ccccc3s2)cc1 [Compound 8, N‐(Benzo[d]thiazol‐2‐yl)‐4‐methylbenzamide] | 6.44 ± 0.05 µM | 9.541 ± 0.099 ng/μg protein | 5.2 ± 0.19 µM | 1.238 | 4.69 ± 0.05 µM | 1.373 |  |  | 
8 | COc1ccc(CC(=O)Nc2nc3ccccc3s2)cc1 [Compound 24, N‐(Benzo[d]thiazol‐2‐yl)‐2‐(4‐methoxyphenyl) acetamide] |  |  |  | 6.306 |  | 6.440 | 81.5 ± 1.07 µM | 12.9 ± 0.19 µM | 12.7 ± 0.18 µM
9 | N.N.[Cl][Pt][Cl] [Cisplatin, reference compound] |  |  |  | 1.195 |  | 5.118 | 36 ± 2.01 µM | 30.1 ± 1.39 µM | 7.03 ± 0.04 µM
10 | COc1cccc2c1C(=O)c1c(O)c3c(c(O)c1C2=O)C[C@@](O)(C(=O)CO)C[C@@H]3O[C@H]1C[C@H](N)[C@H](O)[C@H](C)O1 [Doxorubicin, reference compound] | 24 ± 1.07 µM |  | 9.27 ± 0.21 µM | 2.584 | 5.8 ± 0.15 µM | 4.131 |  |  | 
11 | O=C(Cc1ccc(Cl)cc1)NCc1nc2ccccc2s1 [Compound 27, N‐(Benzo[d]thiazol‐2‐ylmethyl)‐2‐(4‐chlorophenyl) acetamide] |  |  |  | 2.243 |  | 2.666 | 32.9 ± 0.35 µM | 14.7 ± 0.63 µM | 12.3 ± 0.96 µM
12 | O=C(NCc1nc2ccccc2s1)c1ccc(Cl)cc1 [Compound 11, N‐(Benzo[d]thiazol‐2‐ylmethyl)‐4‐chlorobenzamide] | 35.87 ± 0.23 µM |  | 10 ± 0.36 µM | 3.583 | 15.6 ± 0.65 µM | 2.304 |  |  | 
13 | O=C(Nc1nc2ccccc2s1)c1ccccc1 [Compound 7, N‐(Benzo[d]thiazol‐2‐yl) benzamide] | 26.9 ± 0.97 µM |  | 11.8 ± 0.57 µM | 2.284 | 12.4 ± 0.97 µM | 2.171 |  |  | 
14 | O=C(Cc1cccs1)Nc1nc2ccccc2s1 [Compound 25, N‐(Benzo[d]thiazol‐2‐yl)‐2‐(thiophen‐2‐yl) acetamide] |  |  |  | 9.360 |  | 10.189 | 135 ± 1.83 µM | 14.4 ± 0.18 µM | 13.21 ± 0.03 µM
15 | O=C(Nc1nc2ccccc2s1)c1ccc(Br)cc1 [Compound 5, N‐(Benzo[d]thiazol‐2‐yl)‐4‐bromobenzamide] | 31 ± 0.66 µM |  | 15.3 ± 0.32 µM | 2.033 | 12.9 ± 0.37 µM | 2.399 |  |  | 
16 | COc1ccc(OC)c(CC(=O)Nc2nc3ccccc3s2)c1 [Compound 20, N‐(Benzo[d]thiazol‐2‐yl)‐2‐(2,5‐dimethoxyphenyl) acetamide] |  |  |  | 5.464 |  | 5.977 | 87.8 ± 1.29 µM | 16.07 ± 0.12 µM | 14.7 ± 0.15 µM
17 | O=C(Nc1nc2ccccc2s1)c1ccc(C(F)(F)F)cc1 [Compound 6, N‐(Benzo[d]thiazol‐2‐yl)‐4‐(trifluoromethyl) benzamide] |  |  |  | 2.197 |  | 1.772 | 23.9 ± 0.32 µM | 10.9 ± 0.28 µM | 13.5 ± 0.37 µM
18 | O=C(NCc1nc2ccccc2s1)c1ccc(Br)cc1 [Compound 16, N‐(Benzo[d]thiazol‐2‐ylmethyl)‐4‐bromobenzamide] | 35.8 ± 0.46 µM |  | 20.25 ± 0.19 µM | 1.766 | 14.1 ± 0.95 µM | 2.536 |  |  | 
